Laboratory results published in the METLIN SMRT retention time set (Domingo-Almenara et al. 2019).

Test: gradient 5% acetonitrile 3 min, to 50% in 2 min, to 85% in 15 min, held 3 min, 100 µL/min
Conditions: column: Zorbax Extend-C18 2.1 x 50 mm; eluents: water / acetonitrile, 0.1% formic acid
Outline: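 In both positive and negative ionization mode, a quadrupole time-of-flight mass spectrometer coupled to HPLC analyzed pure standards run in mixtures of ~100 molecules. The Zorbax Extend-C18 column (2.1 × 50 mm, 1.8 μm) was operated at 100 μL/min with water and acetonitrile, each containing 0.1% formic acid. The dead volume was 40 μL and the dwell volume 900 μL. Retention time came from adduct peaks that were computationally picked and individually inspected by hand.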

Row | RP-LC retention time [s] | SMILES
1 | 635 | O=C(c1cnc2n(c1=O)CCS2)N1CCN(c2ccc([N+](=O)[O-])cc2)CC1
2 | 776 | O=C(NC1CCN(c2cc(-c3cccs3)[nH]n2)C1)c1ccc(Cl)cc1 (stereo unspecified)
3 | 731 | CCN1C(=O)c2cccc3c(NC(=O)c4cccs4)ccc1c23
4 | 800 | COc1ccc(NC(=O)c2ccc3ncsc3c2)c([N+](=O)[O-])c1
5 | 593 | COc1ccc(OCC(=O)N2CCN(c3cc(C)n4cnnc4n3)CC2)cc1
6 | 940 | CC(C)n1nnc2cc(S(=O)(=O)N3CCCC(C(=O)N(C)Cc4ccccc4)C3)ccc21 (stereo unspecified)
7 | 933 | Cc1ccc(-c2noc(-c3ccccc3S(=O)(=O)Nc3ccc(S(N)(=O)=O)cc3)n2)cc1
8 | 897 | COC(=O)c1cn(CC(=O)NCc2cc3c(cc2OC)OCCCO3)c2ccccc12
9 | 659 | CCN1CCN(C(=O)Nc2ccc(Br)cc2F)c2cccnc21
10 | 598 | Cc1ccc2nc(C3CN(C(=O)c4c(-c5ccccc5Cl)noc4C)C3)[nH]c2c1
11 | 605 | Cn1c(NC(=O)C2CC2)cc(=O)n(C)c1=O
12 | 659 | O=C(NCc1ccc2c(c1)OCO2)C1CCN(c2cncnc2N2CCCCC2)CC1
13 | 945 | O=C(Cc1cccn1-c1ccc(Cl)cc1)NC1CCCC1
14 | 800 | Cc1ccc(N2CC(C(=O)N3CCC(NS(=O)(=O)c4ccccc4)CC3)CC2=O)cc1C (stereo unspecified)
15 | 931 | Cc1ccc(C)c(NC(=O)Cn2c(=O)n(-c3ccc(F)cc3)c(=O)c3c2cc(C)n3C)c1
16 | 759 | O=C(Cn1ccn2nc(-c3ccccc3)c(CO)c2c1=O)Nc1ccc2c(c1)OCCO2
17 | 995 | Cc1nc(-c2cn(C)c3ncccc23)sc1C(=O)NC1CCCCCC1
18 | 1310 | CCn1c(C(=O)Nc2cc(Cl)ccc2C)cc2sc(Cl)cc21
19 | 593 | COc1ccc(-c2nc3cnccn3c2Nc2ccc(C(N)=O)cc2)cc1OC
20 | 669 | Cc1ccc(NS(=O)(=O)c2cc3n(c2)CCCNC3=O)cc1F
21 | 1120 | CCOc1ccccc1NC(=O)c1cnn(-c2ccc(Br)cc2)c1
22 | 753 | Cn1cc(CN2CCCC(COc3ccccc3C(=O)N3CCCCC3)C2)c2ccccc21 (stereo unspecified)

Row | RP-LC retention time [s] | SMILES
23 | 788 | CCSc1nnc2c(n1)OC(c1cccn1C)N(C(C)=O)c1ccccc1-2 (stereo unspecified)
24 | 599 | Cc1cc(=O)n(CC(=O)NC2CCCC2)c(N2CCOCC2)n1
25 | 830 | O=C(COc1ccc(Cl)cc1Cl)N(Cc1ccccn1)Cc1ccco1
26 | 902 | CCn1c(=O)c(N2CCN(C(=O)NCCc3ccccc3)CC2)nc2ccccc21
27 | 831 | CCC(C(=O)NC(C)C)n1nc(C)c2nn(-c3ccccc3)c(C)c2c1=O (stereo unspecified)
28 | 958 | COCC(=O)N(CCC(C)C)CC(=O)N1CCc2sccc2C1COc1ccccc1F (stereo unspecified)
29 | 833 | CCOc1ccc(CN2C(=O)C3(CCOCC3)CC2c2nnnn2C(C)(C)C)cc1 (stereo unspecified)
30 | 788 | COCc1noc([C@@H]2CC(F)(F)CN2C(=O)c2occc2C)n1
31 | 642 | O=C(CCC1CCCN(S(=O)(=O)c2ccccc2F)C1)NCCN1CCOCC1 (stereo unspecified)
32 | 774 | O=C(NCc1cccc(F)c1)N1CCC(n2c(-c3ccco3)nc3cccnc32)C1 (stereo unspecified)
33 | 587 | CNC(=O)[C@@H]1CCCN1C(=O)c1ccccc1
34 | 882 | CCS(=O)(=O)N1CC(=O)N(c2ccc(Cl)cc2)C(C)(C(=O)NC2CCCCC2)C1 (stereo unspecified)
35 | 784 | O=C(CC1CCCC1)NCCC1CCN(C(=O)Nc2ccccc2)CC1
36 | 697 | CCC(=O)Nc1ccc(-n2cnc(C(=O)NCc3ccccc3)c2)nc1
37 | 1110 | O=S(=O)(c1cccc(-c2nnc(-c3ccc(F)cc3)o2)c1)N1CCCCCC1
38 | 914 | CC(C)S(=O)(=O)c1cccc(C(=O)Nc2nc(-c3cc([N+](=O)[O-])cs3)cs2)c1
39 | 767 | CCCC(=O)Nc1cc2c(cc1S(=O)(=O)c1ccc(F)cc1)n(C)c(=O)n2C
40 | 819 | NC(=O)[C@H]1CCCCc2c1[nH]c1ccc(Cl)cc21
41 | 736 | COc1ccc(OCc2noc(CNC(=O)C3CC(=O)N(c4ccccc4)C3)n2)cc1 (stereo unspecified)
42 | 792 | CN(C)C(=O)c1ccc2c(c1)N(CC(=O)NCc1ccc(Cl)cc1)C(=O)C1CCCCN21 (stereo unspecified)
43 | 833 | CCn1c(=O)c(C)nc2cc(C(=O)NCCc3c[nH]c4ccc(Cl)cc34)ccc21
44 | 907 | COc1ccccc1CNS(=O)(=O)c1ccc2c(c1)C(=O)N(C)c1ncccc1O2

Row | RP-LC retention time [s] | SMILES
45 | 778 | CCOC(=O)c1c(C)[nH]c(C(=O)N2CCC(CC(=O)NC3CCCCC3)CC2)c1C
46 | 790 | CCC(=O)N1CCc2cc(N3CC(C(=O)Nc4cc(C)ccc4C)CC3=O)ccc21 (stereo unspecified)
47 | 671 | O=C(Cc1ccsc1)N1CCn2c(nnc2-c2ccccc2)C1
48 | 754 | COc1ccccc1N1CCN(C(=O)CC(C)S(=O)(=O)c2ccc3c(c2)CCN3C(C)=O)CC1 (stereo unspecified)
49 | 745 | COc1ccc(S(=O)(=O)N2CCc3nn(CC(C)C)c(=O)n3CC2)cc1OC
50 | 1140 | O=C(Nc1cccc(C(F)(F)F)c1)Nc1nc(-c2ccccc2)cs1
51 | 634 | O=C(NCCCn1cccn1)c1c(OCC2CC2)cc(=O)n2c1CCCCC2
52 | 755 | CCc1nc2cc(N3CCC(C(=O)N(C)Cc4ccco4)CC3)cnc2nc1CC
53 | 601 | O=C(c1cnccn1)N1CC(c2nc(CCOCC3CCCC3)no2)C1
54 | 978 | CCOC(=O)c1ccc(NC(=O)C2CCC(=O)N2S(=O)(=O)c2ccc(C)c(C)c2)cc1 (stereo unspecified)
55 | 806 | COc1ccc(OCc2noc(CNC(=O)CSc3nc4ccccc4o3)n2)cc1
56 | 997 | COc1ccc(NC(=O)c2cn(C)nc2S(=O)(=O)N2CCC(C)CC2)c(F)c1
57 | 751 | CCN1CCn2cc(S(=O)(=O)Nc3cc(C)ccc3F)cc2C1=O
58 | 610 | Cc1[nH]c(C(=O)N2CCCC(C(=O)NCc3ccc(Cl)cc3)C2)c(C)c1C(=O)OC(C)C (stereo unspecified)
59 | 732 | O=C(Cn1nc(C(=O)N2CCOCC2)c2ccccc21)Nc1ccc(F)cc1F
60 | 974 | CC(=O)Oc1ccccc1C1=NN(C(C)=O)C(c2ccccc2Cl)O1 (stereo unspecified)
61 | 1010 | Cc1ccc(-c2noc(C3CC(=O)N(c4ccccc4Cl)C3)n2)cc1 (stereo unspecified)
62 | 605 | O=C1[C@H]2CN(Cc3ccncc3)C[C@H]2C(=O)N1Cc1ccc2c(c1)OCO2
63 | 803 | Cc1cc(N2CCOCC2)nc(N2CCN(S(=O)(=O)c3ccc(-c4ccccc4)cc3)CC2)n1
64 | 755 | CN(C)c1cc(-n2cnc(C(=O)Nc3ccc4c(c3)OCCO4)c2)ncn1
65 | 1000 | COc1ccc(OCc2nc(-c3ccc(S(=O)(=O)N4CCOCC4)cc3)no2)cc1

Row | SMILES | RP-LC retention time [s]
66 | Cc1cccc(C)c1NC1=NCCCS1 | 635
